Data: article PMC11859928, “Design, Synthesis, and Antiproliferative Activity of Novel Indole/1,2,4-Triazole Hybrids as Tubulin Polymerization Inhibitors” (Pharmaceuticals, 2025)
Read-outs that look alike come from different tables or passages of the source.

Legend:
[1] = tested on: A498; test: NCI five-dose assay; format: cell-based, human; details: A498, five dose levels
[2] = tested on: SW-620; test: NCI five-dose assay; format: cell-based, human; details: SW-620, five dose levels
[3] = tested on: A549/ATCC; test: NCI five-dose assay; format: cell-based, human; details: five dose levels
[4] = tested on: NCI-H226; test: NCI five-dose assay; format: cell-based, human; details: Homo sapiens, NCI-H226, five dose levels
[5] = tested on: SR; test: NCI five-dose assay; format: cell-based, human; details: five dose levels
[6] = tested on: Ovarian cancer subpanel; test: NCI five-dose assay, subpanel mean; format: cell-based, human
[7] = tested on: Prostate cancer subpanel; test: NCI five-dose assay, subpanel mean; format: cell-based, human
[8] = tested on: Colon cancer subpanel; test: NCI five-dose assay, subpanel mean; format: cell-based, human
[9] = tested on: SK-OV-3; test: NCI five-dose assay; format: cell-based, human; details: Homo sapiens, SK-OV-3, five dose levels
[10] = tested on: NCI-H322M; test: NCI five-dose assay; format: cell-based, human; details: five dose levels
[11] = tested on: MDA/MB-231-ATCC; test: NCI five-dose assay; format: cell-based, human; details: five dose levels
[12] = tested on: NCI-H522; test: NCI five-dose assay; format: cell-based, human; details: NCI-H522, five dose levels
[13] = tested on: CCRF-CEM; test: NCI five-dose assay; format: cell-based, human; details: Homo sapiens, five dose levels
[14] = tested on: panel of 60 human tumor cell lines; test: NCI five-dose assay, full panel; format: cell-based
[15] = tested on: NCI/ADR-RES; test: NCI five-dose assay; format: cell-based, human; details: five dose levels
[16] = tested on: SN12C; test: NCI five-dose assay; format: cell-based, human; details: five dose levels
[17] = tested on: PC-3; test: NCI five-dose assay; format: cell-based, human; details: PC-3, five dose levels
[18] = tested on: RXF393; test: NCI five-dose assay; format: cell-based, human; details: RXF393, five dose levels
[19] = tested on: M14; test: NCI five-dose assay; format: cell-based, human; details: M14, five dose levels
[20] = tested on: SF-539; test: NCI five-dose assay; format: cell-based, human; details: SF-539, five dose levels
[21] = tested on: SK-MEL-2; test: NCI five-dose assay; format: cell-based, human; details: Homo sapiens, SK-MEL-2, five dose levels
[22] = tested on: NCI-H460; test: NCI five-dose assay; format: cell-based, human; details: NCI-H460, five dose levels
[23] = tested on: 786-0; test: NCI five-dose assay; format: cell-based, human; details: 786-0, five dose levels
[24] = tested on: CNS cancer subpanel; test: NCI five-dose assay, subpanel mean; format: cell-based, human
[25] = tested on: OVCAR-5; test: NCI five-dose assay; format: cell-based, human; details: OVCAR-5, five dose levels
[26] = tested on: IGROV1; test: NCI five-dose assay; format: cell-based, human; details: IGROV1, five dose levels
[27] = tested on: OVCAR-8; test: NCI five-dose assay; format: cell-based, human; details: OVCAR-8, five dose levels
[28] = Homo sapiens, read-out: GI50 Conc. per Cell Lines
[29] = Homo sapiens, read-out: LC50 (the source's name)
[30] = read-out: GI50 Conc. per Cell Lines
[31] = read-out: LC50 (the source's name)

O/N=C(\CSc1nnc(-c2c[nH]c3ccccc23)n1-c1ccccc1)c1ccc(Cl)cc1 [Compound 7j, (Z)-2-((5-(1H-Indol-3-yl)-4-phenyl-4H-1,2,4-triazol-3-yl)thio)-1-(4-chlorophenyl) Ethanone Oxime]
TGI Conc. per Cell Lines [1]: 65.8 µM
LC50 ([1]; Homo sapiens): 88.6 µM
GI50 [1, 28]: 15.4 µM
GI50 [2, 28]: 3.08 µM
CC50 [2, 29]: 83.2 µM
TGI Conc. per Cell Lines [2]: 16.1 µM
GI50 [3, 28]: 3.35 µM
CC50 [3, 29]: > 100 µM
TGI Conc. per Cell Lines [3]: 16.8 µM
GI50 [4, 30]: 3.99 µM
CC50 [4, 31]: 61.8 µM
GI50 [5, 28]: 4.74 µM
CC50 [5, 29]: > 100 µM
TGI Conc. per Cell Lines [5]: >100 µM
GI50 ([6]; Homo sapiens, Ovarian cancer, average sensitivity of all cell lines of the subpanel, read-out: GI50 Subpanel MID b): 3.61 µM
GI50 Selectivity Ratio (MID a/MID b) ([6]; Ovarian cancer subpanel): 1.01
GI50 ([7]; Homo sapiens, Prostate cancer, average sensitivity of all cell lines of the subpanel, read-out: GI50 Subpanel MID b): 2.45 µM
GI50 Selectivity Ratio (MID a/MID b) ([7]; Prostate cancer subpanel): 1.48
GI50 Selectivity Ratio (MID a/MID b) ([8]; Colon cancer subpanel): 0.978
GI50 ([8]; Homo sapiens, Colon cancer, average sensitivity of all cell lines of the subpanel, read-out: GI50 Subpanel MID b): 3.73 µM
GI50 [9, 30]: 3.38 µM
CC50 [9, 31]: 71.4 µM
GI50 [10, 28]: 5.71 µM
CC50 [10, 29]: > 100 µM
TGI Conc. per Cell Lines [10]: 7.33 µM
LC50 ([11]; Homo sapiens): > 100 µM
GI50 [11, 28]: 1.87 µM
TGI Conc. per Cell Lines [11]: 3.66 µM
GI50 [12, 28]: 3.11 µM
CC50 [12, 29]: 81.7 µM
TGI Conc. per Cell Lines [12]: 12.5 µM
GI50 [13, 30]: 2.85 µM
CC50 [13, 31]: > 100 µM
GI50 ([14]; average sensitivity of all cell lines, read-out: GI50 MID a): 3.65 µM
GI50 ([14]; most of the tested cell lines across nine subpanels, read-out: GI50 values, range across nine subpanels): 2.45 to 5.23 µM
LC50 ([15]; Homo sapiens): > 100 µM
GI50 [15, 28]: 2.95 µM
TGI Conc. per Cell Lines [15]: 9.50 µM
GI50 [16, 28]: 3.79 µM
CC50 [16, 29]: > 100 µM
TGI Conc. per Cell Lines [16]: 16.3 µM
GI50 [17, 28]: 2.31 µM
CC50 [17, 29]: > 100 µM
TGI Conc. per Cell Lines [17]: 7.29 µM
LC50 (concentration killing 50% of cells) ([18]; Homo sapiens, RXF 393): 46.3 µM
GI50 ([18]; Homo sapiens, RXF 393, read-out: GI50 Conc. per Cell Lines): 2.22 µM
TGI Conc. per Cell Lines [18]: 6.29 µM
GI50 [19, 28]: 3.15 µM
CC50 [19, 29]: > 100 µM
TGI Conc. per Cell Lines [19]: 14.1 µM
GI50 [20, 28]: 10.2 µM
CC50 [20, 29]: 51.2 µM
TGI Conc. per Cell Lines [20]: 29.5 µM
GI50 [21, 30]: 3.64 µM
CC50 [21, 31]: > 100 µM
GI50 [22, 28]: 3.33 µM
CC50 [22, 29]: > 100 µM
TGI Conc. per Cell Lines [22]: 15.7 µM
TGI Conc. per Cell Lines [23]: >100 µM
LC50 (50% lethal concentration) ([23]; Homo sapiens): 93.5 µM
GI50 [23, 28]: 7.29 µM
GI50 Selectivity Ratio (MID a/MID b) ([24]; CNS cancer subpanel): 0.763
GI50 ([24]; Homo sapiens, CNS cancer, average sensitivity of all cell lines of the subpanel, read-out: GI50 Subpanel MID b): 4.78 µM
LC50 ([25]; Homo sapiens): > 100 µM
GI50 [25, 28]: 3.37 µM
TGI Conc. per Cell Lines [25]: 11.4 µM
GI50 ([26]; Homo sapiens, IGROV-1, read-out: GI50 Conc. per Cell Lines): 5.35 µM
CC50 ([26]; Homo sapiens, IGROV-1, read-out: LC50 (the source's name)): > 100 µM
TGI Conc. per Cell Lines [26]: 19.8 µM
GI50 [27, 28]: 3.72 µM
CC50 [27, 29]: > 100 µM
TGI Conc. per Cell Lines [27]: 15.8 µM
